In brackets after ≈: the same amount, converted by molar mass.
How the values were obtained:
A549 [1] = assay: Cytotoxicity against human A549 cells after 1 hr; format: functional, cell-based; settings: A549, 1 h
A549 [2] = assay: Cytotoxicity against human A549 cells after 1 hr compound washout; format: functional, cell-based; settings: A549, 1 h
A549 [3] = assay: Cytotoxicity against human A549 cells after 48 hrs; format: functional, cell-based; settings: A549, 48 h
SF-295 [4] = assay: Cytotoxicity against human SF295 cells after 1 hr; format: functional, cell-based; settings: SF-295, 1 h
SF-295 [5] = assay: Cytotoxicity against human SF295 cells after 48 hrs; format: functional, cell-based; settings: SF-295, 48 h
CCRF-CEM = assay: Cytotoxicity against human CCRF-CEM cells; format: functional
K562 = assay: Cytotoxicity against human K562 cells; format: functional
RPMI-8226 = assay: Cytotoxicity against human RPMI8226 cells; format: functional
SR = assay: Cytotoxicity against human SR cells; format: functional
HOP-62 = assay: Cytotoxicity against human HOP62 cells; format: functional
NCI-H226 = assay: Cytotoxicity against human NCI-H226 cells; format: functional
NCI-H23 = assay: Cytotoxicity against human NCI-H23 cells; format: functional
NCI-H460 = assay: Cytotoxicity against human NCI-H460 cells; format: functional
COLO 205 = assay: Cytotoxicity against human COLO205 cells; format: functional
HCC 2998 = assay: Cytotoxicity against human HCC2998 cells; format: functional
HT-29 = assay: Cytotoxicity against human HT-29 cells; format: functional
SW-620 = assay: Cytotoxicity against human SW620 cells; format: functional
SF-268 = assay: Cytotoxicity against human SF268 cells; format: functional
SF-295 [6] = assay: Cytotoxicity against human SF295 cells; format: functional
SF-539 = assay: Cytotoxicity against human SF539 cells; format: functional
SNB-19 = assay: Cytotoxicity against human SNB19 cells; format: functional
SNB-75 = assay: Cytotoxicity against human SNB75 cells; format: functional
U-251 = assay: Cytotoxicity against human U251 cells; format: functional
LOX IMVI = assay: Cytotoxicity against human LOXIMVI cells; format: functional
Malme-3M = assay: Cytotoxicity against human MALME-3M cells; format: functional
SK-MEL-28 = assay: Cytotoxicity against human SK-MEL-28 cells; format: functional
UACC-62 = assay: Cytotoxicity against human UACC62 cells; format: functional
IGROV-1 = assay: Cytotoxicity against human IGROV1 cells; format: functional
OVCAR-3 = assay: Cytotoxicity against human OVCAR-3 cells; format: functional
OVCAR-5 = assay: Cytotoxicity against human OVCAR5 cells; format: functional
OVCAR-8 = assay: Cytotoxicity against human OVCAR8 cells; format: functional
SK-OV-3 = assay: Cytotoxicity against human SKOV3 cells; format: functional
[7] = Cytotoxicity against human 786-O cells; format: functional
A498 = assay: Cytotoxicity against human A498 cells; format: functional
CAKI-1 = assay: Cytotoxicity against human Caki1 cells; format: functional
RXF 393 = assay: Cytotoxicity against human RXF393 cells; format: functional
SN12C = assay: Cytotoxicity against human SN12C cells; format: functional
TK-10 = assay: Cytotoxicity against human TK10 cells; format: functional
UO-31 = assay: Cytotoxicity against human UO31 cells; format: functional
PC-3 = assay: Cytotoxicity against human PC3 cells; format: functional
DU-145 = assay: Cytotoxicity against human DU145 cells; format: functional
MCF7 = assay: Cytotoxicity against human doxorubicin-resistant MCF7 cells; format: functional
MDA-MB-231 = assay: Cytotoxicity against human MDA-MB-231 cells; format: functional
[8] = Cytotoxicity against human Hs 578T cells; format: functional
MDA-MB-435 = assay: Cytotoxicity against human MDA-MB-435 cells; format: functional
MDA-N = assay: Cytotoxicity against human MDA-N cells; format: functional
T47D = assay: Cytotoxicity against human T47D cells; format: functional
[9] = read-out: pLC50 (the source's name) (converted)

For `COc1cc(/C=C/c2cc(O)c(C/C=C(\C)CCC=C(C)C)c(O)c2)cc2c1O[C@]1(C)C[C@@H](O)[C@@H](O)C(C)(C)[C@H]1C2` [SCHWEINFURTHIN B], the IC50 (A549 [1]) was greater than 100 µg/mL, the IC50 (A549 [2]) was 80 µg/mL (≈ 142 µM) and the IC50 (A549 [3]) was 7.1 µg/mL (≈ 12.6 µM). For the same compound, the IC50 (SF-295 [4]) was greater than 100 µg/mL, the IC50 (SF-295 [5]) was 0.009 µg/mL (≈ 0.016 µM) and the GI50 (CCRF-CEM) was 0.229 µM. The LC50 (CCRF-CEM) was greater than 100 µM, the TGI (CCRF-CEM; read-out: pTGI (converted)) was 6.31 µM and the GI50 (K562) was 0.347 µM. For the same compound, the LC50 (K562) was 36.3 µM, the TGI (K562; read-out: pTGI (converted)) was 6.17 µM and the GI50 (RPMI-8226) was 0.0151 µM. The LC50 (RPMI-8226) was 12 µM, the TGI (RPMI-8226; read-out: pTGI (converted)) was 0.11 µM and the GI50 (SR) was 0.257 µM. The LC50 (SR) was 58.9 µM, the TGI (SR; read-out: pTGI (converted)) was 12 µM and the GI50 (HOP-62) was 0.851 µM. It also gave an LC50 (HOP-62) of 40.7 µM, a TGI (HOP-62; read-out: pTGI (converted)) of 14.1 µM and a GI50 (NCI-H226) of 2.19 µM. The LC50 (NCI-H226) was 77.6 µM, the TGI (NCI-H226; read-out: pTGI (converted)) was 14.1 µM and the GI50 (NCI-H23) was 3.24 µM. For the same compound, the LC50 (NCI-H23) was 51.3 µM, the TGI (NCI-H23; read-out: pTGI (converted)) was 19.1 µM and the GI50 (NCI-H460) was 0.269 µM. For the same compound, the LC50 (NCI-H460) was 57.5 µM, the TGI (NCI-H460; read-out: pTGI (converted)) was 12.9 µM and the GI50 (COLO 205) was 0.617 µM. The LC50 (COLO 205) was 6.76 µM, the TGI (COLO 205; read-out: pTGI (converted)) was 2.4 µM and the GI50 (HCC 2998) was 3.63 µM. The LC50 (HCC 2998) was 34.7 µM, the TGI (HCC 2998; read-out: pTGI (converted)) was 11 µM and the GI50 (HT-29) was 0.372 µM. The LC50 (HT-29) was 5.5 µM, the TGI (HT-29; read-out: pTGI (converted)) was 2.09 µM and the GI50 (SW-620) was 0.676 µM. For the same compound, the LC50 (SW-620) was 17 µM, the TGI (SW-620; read-out: pTGI (converted)) was 3.09 µM and the GI50 (SF-268) was 4.37 µM. It also gave an LC50 (SF-268) of 75.9 µM, a TGI (SF-268; read-out: pTGI (converted)) of 24 µM and an LC50 (SF-295 [6]) of 3.89 µM. The GI50 (SF-295 [6]; read-out: pGI50 (converted)) was 0.024 µM, the TGI (SF-295 [6]; read-out: pTGI (converted)) was 0.288 µM and the GI50 (SF-539) was 0.151 µM. The LC50 (SF-539) was 14.1 µM, the TGI (SF-539; read-out: pTGI (converted)) was 2 µM and the GI50 (SNB-19) was 0.398 µM. The LC50 (SNB-19) was 40.7 µM, the TGI (SNB-19; read-out: pTGI (converted)) was 15.8 µM and the GI50 (SNB-75) was 0.0251 µM. The LC50 (SNB-75) was 60.3 µM, the TGI (SNB-75; read-out: pTGI (converted)) was 1.82 µM and the GI50 (U-251) was 0.2 µM. The LC50 (U-251) was 49 µM, the TGI (U-251; read-out: pTGI (converted)) was 24 µM and the GI50 (LOX IMVI) was 0.38 µM. The LC50 (LOX IMVI) was 30.9 µM, the TGI (LOX IMVI; read-out: pTGI (converted)) was 17 µM and the GI50 (Malme-3M) was 8.71 µM. For the same compound, the LC50 (Malme-3M) was 69.2 µM, the TGI (Malme-3M; read-out: pTGI (converted)) was 26.9 µM and the GI50 (SK-MEL-28) was 1.1 µM. The LC50 (SK-MEL-28) was 52.5 µM, the TGI (SK-MEL-28; read-out: pTGI (converted)) was 12.9 µM and the GI50 (UACC-62) was 0.331 µM. The LC50 (UACC-62) was 10 µM, the TGI (UACC-62; read-out: pTGI (converted)) was 2.29 µM and the GI50 (IGROV-1) was 2.4 µM. It also gave an LC50 (IGROV-1) of 42.7 µM, a TGI (IGROV-1; read-out: pTGI (converted)) of 18.2 µM and a GI50 (OVCAR-3) of 3.89 µM. It also gave an LC50 (OVCAR-3) of 42.7 µM, a TGI (OVCAR-3; read-out: pTGI (converted)) of 12.9 µM and a GI50 (OVCAR-5) of 7.08 µM. The LC50 (concentration killing 50% of cells) (OVCAR-5) was 44.7 µM, the TGI (OVCAR-5; read-out: pTGI (converted)) was 19.1 µM and the GI50 (OVCAR-8) was 11 µM. For the same compound, the LC50 (OVCAR-8) was 64.6 µM, the TGI (OVCAR-8; read-out: pTGI (converted)) was 26.9 µM and the GI50 (SK-OV-3) was 2.57 µM. For the same compound, the LC50 (SK-OV-3) was 40.7 µM, the TGI (SK-OV-3; read-out: pTGI (converted)) was 15.8 µM and the GI50 ([7]; 786-0) was 0.0219 µM. It also gave an LC50 ([7]; 786-0) of 14.1 µM, a TGI ([7]; 786-0, read-out: pTGI (converted)) of 1.91 µM and a GI50 (A498) of 1.7 µM. The LC50 (A498) was 44.7 µM, the TGI (A498; read-out: pTGI (converted)) was 17 µM and the GI50 (CAKI-1) was 1.91 µM. The LC50 (CAKI-1) was 75.9 µM, the TGI (CAKI-1; read-out: pTGI (converted)) was 28.8 µM and the GI50 (RXF 393) was 0.01 µM. The LC50 (RXF 393) was 7.08 µM, the TGI (RXF 393; read-out: pTGI (converted)) was 0.269 µM and the GI50 (SN12C) was 12 µM. It also gave an LC50 (SN12C) of 67.6 µM, a TGI (SN12C; read-out: pTGI (converted)) of 28.8 µM and a GI50 (TK-10) of 6.17 µM. It also gave an LC50 (TK-10) of 52.5 µM, a TGI (TK-10; read-out: pTGI (converted)) of 21.9 µM and a GI50 (UO-31) of 0.0759 µM. For the same compound, the LC50 (UO-31) was 5.25 µM, the TGI (UO-31; read-out: pTGI (converted)) was 0.912 µM and the GI50 (PC-3) was 0.251 µM. The CC50 (PC-3; [9]) was 42.7 µM, the TGI (PC-3; read-out: pTGI (converted)) was 12.9 µM and the GI50 (DU-145) was 3.39 µM. The CC50 (DU-145; [9]) was 50.1 µM, the TGI (DU-145; read-out: pTGI (converted)) was 19.1 µM and the GI50 (MCF7) was 6.92 µM. The CC50 (MCF7; [9]) was 75.9 µM, the TGI (MCF7; read-out: pTGI (converted)) was 30.2 µM and the GI50 (MDA-MB-231) was 6.46 µM. The CC50 (MDA-MB-231; [9]) was 81.3 µM, the TGI (MDA-MB-231; read-out: pTGI (converted)) was 38 µM and the GI50 [8] was 0.0199 µM. For the same compound, the CC50 [8, 9] was greater than 100 µM, the TGI ([8]; read-out: pTGI (converted)) was 1.1 µM and the GI50 (MDA-MB-435) was 7.59 µM. For the same compound, the CC50 (MDA-MB-435; [9]) was 72.4 µM, the TGI (MDA-MB-435; read-out: pTGI (converted)) was 33.1 µM and the GI50 (MDA-N) was 3.39 µM. For the same compound, the CC50 (MDA-N; [9]) was 28.8 µM, the TGI (MDA-N; read-out: pTGI (converted)) was 15.1 µM and the GI50 (T47D) was 11 µM. It also gave a CC50 (T47D; [9]) greater than 100 µM and a TGI (T47D; read-out: pTGI (converted)) of 69.2 µM.

Source: ChEMBL document CHEMBL1151324, “Cytotoxic geranyl stilbenes from Macaranga schweinfurthii” (J Nat Prod, 1998)
